One assay deals with T1, dopamine D-1 receptor (Rattus norvegicus, UniProt P18901).
T1 construct: Striatal tissue is excised, pooled, and homogenized; from tissue; host or cells: rat striatum, washed membrane homogenate
Description: Competitive inhibition assay, 3H-SCH 23390 binding (D-1), rat striatal tissue. Also on record: species or system rat (male Sprague-Dawley). As to conditions: for Ki: Col. 7, 3H-SCH 23390 0.3 nM, rat striatum, 37° C., 15 min, pH 7.4, read-out: Ki (nM) 3H-Sch23390. From the text:
(§1) A methodology for characterization of D-1 and D-2 receptor binding and an interpretation of the data are described by Billard et al., Life Sciences 35, 1885 (1984) in which the binding of the benzazepine (R)-(+)-8-chloro-2,3,4,5-tetrahydro-3-methyl-5-phenyl-1H-3-benzazepin-7-olhemimaleate (SCH 23390) to the dopamine D-1 receptor is characterized. A selectivity for D-1 receptor binding as compared to D-2 receptor binding .is believed to confer the therapeutic advantage of avoiding troublesome and potentially irreversible neurological side effects associated with D-2 receptor occupancy.
(§2) Tritiated SCH 23390 and tritiated spiperone (a potent D-2 receptor ligand) are obtained as described in the Billard et al. reference supra and serially diluted in 0.05M Tris buffer, pH 7.4, as required. Compounds of this invention are synthesized as disclosed herein and diluted in 0.05M Tris buffer, pH 7.4, as required.
(§3) Male Sprague-Dawley rats (200 to 250 g) from Charles River Breeding Laboratories, Mass. are used to obtain brain tissue. The rats are humanely sacrificed and their brains removed and placed on ice. Striatal tissue is excised, pooled, and homogenized (Brinkman Polytron, 10 sec) in 100 volumes (w/v) of ice cold 50 mM Tds buffer, pH 7.4 (at 25° C.). The homogenate is centrifuged at 20,000 xg for 10 min. The resultant pellet is rehomogenized in Tris buffer and centrifuged again. The final pellet is resuspended in 50 mM Tris buffer pH 7.4 containing 120 mM NaCl, 5 mM KCl, 2 mM CaCl2, and 1 mM MgCl2.
(§4) Polypropylene incubation tubes receive 100 μl of the individual test compounds at vadous concentrations dissolved or suspended in 0.05M Tris, pH 7.4 containing 4 mg/ml methylcellulose, 100 μl of a solution of ^3 H-SCH 23390 in Tris buffer (final reaction mixture concentration=0.3 nM) or 100 μl of a solution of ^3 H-spiperone in Tris buffer (final concentration=0.2 nM) and 800 μl of tissue suspension (ca. 3 mg/assay). Tubes are incubated at 37° C. for 15 minutes and rapidly vacuum filtered through Whatman GF/B filters and rinsed 4 times with 4 ml of ice cold 50 mM Tds buffer, pH 7.4. The filters are transferred to scintillation vials, equilibated with 10 ml of scintillant (Scintosol, Isolab, Inc.) for 16 hours at 25° C. and the radioactivity determined in a liquid scintillation counter, Ki values are determined as described by Billard et al. using the relationship Kj = IC50 /(1+([L]/KD)) wherein IC50 =concentration of test drug necessary to displace 50% of specifically bound ^3 H-Sch 23390, [L]=concentration of radioligand used in the assay, and KD =dissociation constant.

The target of the next assay is T2, D-2 receptor (Rattus norvegicus, UniProt P61169).
T2 construct: Striatal tissue is excised, pooled, and homogenized; from tissue; host or cells: rat striatum, washed membrane homogenate
T2 sequence (P61169 whole entry): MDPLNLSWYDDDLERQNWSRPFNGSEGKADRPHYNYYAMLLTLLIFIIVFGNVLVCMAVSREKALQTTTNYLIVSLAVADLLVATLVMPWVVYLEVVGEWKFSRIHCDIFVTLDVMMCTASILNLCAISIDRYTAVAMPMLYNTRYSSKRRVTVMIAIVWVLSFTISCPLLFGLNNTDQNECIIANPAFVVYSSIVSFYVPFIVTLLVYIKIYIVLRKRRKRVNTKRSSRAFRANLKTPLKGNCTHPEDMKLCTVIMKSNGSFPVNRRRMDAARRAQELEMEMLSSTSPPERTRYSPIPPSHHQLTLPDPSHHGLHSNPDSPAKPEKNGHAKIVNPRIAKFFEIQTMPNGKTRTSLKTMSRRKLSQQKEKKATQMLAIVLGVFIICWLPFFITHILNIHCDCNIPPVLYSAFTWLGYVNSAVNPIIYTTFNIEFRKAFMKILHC
Briefly: Competitive inhibition assay, 3H-spiperone binding (D-2), rat striatal tissue. Also noted: species or system rat (male Sprague-Dawley). As to conditions: for Ki: Col. 8, 3H-spiperone 0.2 nM, rat striatum, 37° C., 15 min, pH 7.4, read-out: Ki (nM) 3H-Spip.
From the text: as §1, §2, §3, §4

The next assay deals with squirrel monkey. Description: Squirrel monkey conditioned avoidance response (CAR) test. The assay is classed as in vivo. The note with it: Primates, po, read-out: CAR(MED) Sq. Monkey @ 1 hr. The text has this:
SQUIRREL MONKEY CONDITIONED AVOIDANCE RESPONSE (CAR) TEST
This test is designed to measure the potency of candidate compounds in a primate species.
Male or female squirrel monkeys weighing 800-1200 g housed one per cage are utilized. Initially each monkey is taught to terminate a 3 mA electric shock delivered through the grid floor of the test cage and an overlapping tone by depressing a lever in the cage.
In the second phase of the testing, a ten second tone is turned on prior to the shock component. A lever press during the sounding of the tone terminates the tone and prevents the occurrence of the shock component and is denoted as an "avoidance".
The compound testing is commenced after three consecutive days of re-testing. […] The monkey must achieve at least an 85% correct avoidance before drug testing commences. If this minimal avoidance level is achieved, the next day the monkey is orally dosed or injected with the subject compounds in the appropriate vehicle and the number of avoidances are recorded. An animal is defined as having been "affected" by any drug treatment if there is a 50% loss of avoidance behavior relative to the performance of the animal when only the vehicle is injected. The minimal effective dose (MED) is defined as that dose producing an effect in at least 50% of the animals.
A test may be conducted to determine the effective potency of a compound in accordance with the present invention by comparing a compound of the invention to a known compound, (R)-(+)-8-chloro-2,3,4,5-tetrahydro-3-methyl-5-phenyl-1H-3-benzazepin-7-olhemimaleate, denoted as Compound B (Sch 23390). A compound of the invention administered 60 minutes prior to the test is compared to compound B administered 30 minutes prior to test.

Setting [1] is: Col. 9, p.o., 1 hr, minimal effective dose = dose producing an effect in at least 50% of the animals.

Molecules are shown by their SMILES. pKi: −log10 of the molar value. Like-named read-outs stand apart in the source and are kept apart here. Some results are limits rather than exact numbers.

T1 sequence (P18901 whole entry): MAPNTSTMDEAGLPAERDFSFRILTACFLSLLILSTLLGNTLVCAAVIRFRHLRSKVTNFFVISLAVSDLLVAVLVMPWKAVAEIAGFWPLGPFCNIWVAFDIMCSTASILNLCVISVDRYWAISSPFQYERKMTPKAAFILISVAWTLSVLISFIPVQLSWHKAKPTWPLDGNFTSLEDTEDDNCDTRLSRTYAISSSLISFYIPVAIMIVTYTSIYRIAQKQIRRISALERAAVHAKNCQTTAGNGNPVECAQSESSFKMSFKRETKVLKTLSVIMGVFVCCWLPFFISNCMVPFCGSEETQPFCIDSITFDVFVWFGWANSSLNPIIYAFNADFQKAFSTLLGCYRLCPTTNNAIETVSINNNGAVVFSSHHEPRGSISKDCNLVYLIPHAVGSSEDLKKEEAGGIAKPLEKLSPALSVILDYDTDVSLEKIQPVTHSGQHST

By Ki is commonly meant the dissociation constant of the complex between target and ligand, obtained from inhibition or displacement. For `CCCCC(=O)Oc1cc2c(cc1Cl)CCN(C)C1CCCC21` (centres unmarked), the values for the Ki at dopamine D-1 receptor and at D-2 receptor were 24 nM and 177 nM, respectively.
Usually pKi stands for the Ki on a negative log10 scale, so that one unit is a factor of ten. Take `Cc1ccc(NC(=O)Oc2cc3c(cc2Cl)CCN(C)[C@@H]2CCC[C@@H]32)c(C)c1` (relative stereo): the values for the negative logarithm of the Ki (pKi) at dopamine D-1 receptor and on D-2 receptor were 8.11 and 6.37, respectively. Besides, the minimal effective dose in the assay with squirrel monkey (1 h) was greater than 3 mg/kg.
Regarding `CC(C)c1ccc(NC(=O)Oc2cc3c(cc2Cl)CCN(C)[C@@H]2CCC[C@@H]32)cc1` (relative stereo), the figures for the pKi on dopamine D-1 receptor and on D-2 receptor were 8.27 and 6.37, respectively.
As for `Cc1cc2c(cc1O)[C@H]1[C@@H](CC[C@@H]1C)N(C)CC2` (relative stereo), the Ki at dopamine D-1 receptor stood at 14 nM; at D-2 receptor, 840 nM. Also, the minimal effective dose in the assay on squirrel monkey (setting [1]) turned out to be 3 mg/kg.
The corresponding values for `C[C@H]1CC[C@@H]2[C@@H]1c1cc(O)c(Cl)cc1CCN2C` (relative stereo) are 3 nM, 350 nM and greater than 10 mg/kg.
In the case of `CN1CCc2cc(Cl)c(O)cc2[C@@H]2CCC[C@H]21` (relative stereo), the Ki was 2.8 nM at dopamine D-1 receptor and 380 nM on D-2 receptor. Also, the minimal effective dose with squirrel monkey (setting [1]) was greater than 10 mg/kg.
Regarding `CN1CCc2ccc(O)cc2[C@@H]2CCC[C@H]21` (relative stereo), the Ki on dopamine D-1 receptor worked out at 335 nM; at D-2 receptor, 2320 nM.
Regarding `C[C@H]1CC[C@@H]2[C@@H](C1)c1cc(O)c(Cl)cc1CCN2C` (relative stereo), the Ki at dopamine D-1 receptor is 70 nM; at D-2 receptor it was greater than 10000 nM. The minimal effective dose with squirrel monkey (setting [1]) is greater than 10 mg/kg.
The corresponding values for `Cc1cc2c(cc1O)[C@@H]1CCCC[C@H]1N(C)CC2` (relative stereo) are 70 nM, 71000 nM and greater than 10 mg/kg.
For the molecule `Oc1cc2c(cc1Cl)CCN[C@@H]1CCC[C@@H]21` (relative stereo), the Ki turned out to be 96 nM at dopamine D-1 receptor and 1300 nM on D-2 receptor.

Source of the values: patent US5362728A, “4,5-bridged-2,3,4,5-tetrahydro-1H-3-benzazepine-7-ols and derivatives and compositions and methods employing such compounds” (Schering Corporation, priority 1992, dated 1994).
